Results as given in patent publication US20170334899A1, “AMINO-SUBSTITUTED ISOTHIAZOLES” (Bayer Pharma Aktiengesellschaft, priority 2014, published 2017).

molecular target: T1, human kinase Mps-1 (Homo sapiens, UniProt P33981); experiment: Mps-1 kinase assay (TR-FRET); type: biochemical; details: Mps-1 TR-FRET kinase assay; avg; read-out: Mps1 avg (IC50 [mol/l])
T1 construct: N-terminally GST-tagged human full length recombinant Mps-1 kinase; GST (N); purchased Invitrogen, Karslruhe, Germany PV4071
T1 sequence (P33981 1-857): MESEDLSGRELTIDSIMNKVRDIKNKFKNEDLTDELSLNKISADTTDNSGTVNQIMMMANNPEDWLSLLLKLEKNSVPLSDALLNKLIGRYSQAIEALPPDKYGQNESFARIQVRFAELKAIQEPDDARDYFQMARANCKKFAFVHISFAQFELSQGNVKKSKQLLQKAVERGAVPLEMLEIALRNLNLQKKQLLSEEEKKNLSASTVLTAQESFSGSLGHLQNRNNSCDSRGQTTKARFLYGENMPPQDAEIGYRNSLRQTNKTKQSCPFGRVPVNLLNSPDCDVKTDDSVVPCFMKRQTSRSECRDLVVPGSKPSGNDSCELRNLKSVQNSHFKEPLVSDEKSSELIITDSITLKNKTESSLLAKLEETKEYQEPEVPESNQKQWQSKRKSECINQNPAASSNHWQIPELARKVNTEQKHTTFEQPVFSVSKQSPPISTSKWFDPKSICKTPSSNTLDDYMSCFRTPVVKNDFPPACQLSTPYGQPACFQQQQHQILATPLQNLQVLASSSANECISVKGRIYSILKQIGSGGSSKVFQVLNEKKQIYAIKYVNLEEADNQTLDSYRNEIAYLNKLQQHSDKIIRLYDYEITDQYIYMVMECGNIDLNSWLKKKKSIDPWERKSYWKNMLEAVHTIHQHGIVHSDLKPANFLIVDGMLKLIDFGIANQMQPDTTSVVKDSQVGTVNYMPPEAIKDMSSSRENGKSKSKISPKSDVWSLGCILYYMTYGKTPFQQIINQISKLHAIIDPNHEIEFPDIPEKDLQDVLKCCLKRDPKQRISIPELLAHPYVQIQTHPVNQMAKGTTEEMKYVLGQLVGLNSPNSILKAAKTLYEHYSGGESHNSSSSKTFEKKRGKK
Outline: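 GST-tagged full-length recombinant human Mps-1 (~0.5 nM) pre-incubated 15 min with compound, then reacted 60 min at 22 °C with 10 μM ATP and 1 μM biotinylated peptide in Hepes pH 7.7 buffer. EDTA-stopped; TR-FRET (Eu anti-phospho-Ser/Thr to SA-XLent) 665/620 nm ratio normalised to no-inhibitor and no-enzyme controls.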

SMILES | IC50
Cc1nsc(Nc2cnc(C(F)(F)F)cn2)c1C(=O)Nc1ccc(C2CCN(CC(F)(F)F)CC2)nc1 [Example 358, 3-methyl-N-{6-[1-(2,2,2-trifluoroethyl)piperidin-4-yl]pyridin-3-yl}-5-{[5-(trifluoromethyl)pyrazin-2-yl]amino}-1,2-thiazole-4-carboxamide] | > 20 µM
Cc1nsc(Nc2cnc(C(F)(F)F)cn2)c1C(=O)Nc1ccc(N2CCN(CC(F)F)CC2)nc1 [Example 359, N-{6-[4-(2,2-difluoroethyl)piperazin-1-yl]pyridin-3-yl}-3-methyl-5-{[5-(trifluoromethyl)pyrazin-2-yl]amino}-1,2-thiazole-4-carboxamide] | > 20 µM
Cc1nsc(Nc2cnc(C(F)(F)F)cn2)c1C(=O)Nc1ccc(N2CCN(CC(F)(F)F)CC2)nc1 [Example 360, 3-methyl-N-{6-[4-(2,2,2-trifluoroethyl)piperazin-1-yl]pyridin-3-yl}-5-{[5-(trifluoromethyl)pyrazin-2-yl]amino}-1,2-thiazole-4-carboxamide] | > 20 µM
Cc1nsc(Nc2cnc(C(F)(F)F)cn2)c1C(=O)Nc1ccc(N2CCN(CCC(F)(F)F)CC2)nc1 [Example 361, 3-methyl-5-{[5-(trifluoromethyl)pyrazin-2-yl]amino}-N-{6-[4-(3,3,3-trifluoropropyl)piperazin-1-yl]pyridin-3-yl}-1,2-thiazole-4-carboxamide] | > 20 µM
Cc1nsc(Nc2cnc(C(F)(F)F)cn2)c1C(=O)Nc1ccc(O[C@H]2CCN(CC(F)F)C[C@@H]2F)nc1 [Example 362] | > 20 µM
Cc1nsc(Nc2cnc(C(F)(F)F)cn2)c1C(=O)Nc1ccc(O[C@H]2CCN(CC(F)(F)F)C[C@@H]2F)nc1 [Example 363, N-(6-{[(3S,4S)-3-fluoro-1-(2,2,2-trifluoroethyl)piperidin-4-yl]oxy}pyridin-3-yl)-3-methyl-5-{[5-(trifluoromethyl)pyrazin-2-yl]amino}-1,2-thiazole-4-carboxamide] | > 20 µM
Cc1nsc(Nc2cnc(C(F)(F)F)cn2)c1C(=O)Nc1ccc(O[C@H]2CCN(CCC(F)(F)F)C[C@@H]2F)nc1 [Example 364, N-(6-{[(3S,4S)-3-fluoro-1-(3,3,3-trifluoropropyl)piperidin-4-yl]oxy}pyridin-3-yl)-3-methyl-5-{[5-(trifluoromethyl)pyrazin-2-yl]amino}-1,2-thiazole-4-carboxamide] | > 20 µM
CCN1CC[C@H](Oc2ccc(NC(=O)c3c(C)nsc3Nc3cnc(C(F)(F)F)cn3)cn2)[C@@H](F)C1 [Example 365, N-(6-{[(3S,4S)-1-ethyl-3-fluoropiperidin-4-yl]oxy}pyridin-3-yl)-3-methyl-5-{[5-(trifluoromethyl)pyrazin-2-yl]amino}-1,2-thiazole-4-carboxamide] | > 20 µM
Cc1nsc(Nc2cnc(C(F)(F)F)cn2)c1C(=O)Nc1ccc(O[C@@H]2CCN(CC(F)F)C[C@H]2F)nc1 [Example 366, N-(6-{[(3R,4R)-1-(2,2-difluoroethyl)-3-fluoropiperidin-4-yl]oxy}pyridin-3-yl)-3-methyl-5-{[5-(trifluoromethyl)pyrazin-2-yl]amino}-1,2-thiazole-4-carboxamide] | > 20 µM
Cc1nsc(Nc2cnc(C(F)(F)F)cn2)c1C(=O)Nc1ccc(O[C@@H]2CCN(CC(F)(F)F)C[C@H]2F)nc1 [Example 367, N-(6-{[(3R,4R)-3-fluoro-1-(2,2,2-trifluoroethyl)piperidin-4-yl]oxy}pyridin-3-yl)-3-methyl-5-{[5-(trifluoromethyl)pyrazin-2-yl]amino}-1,2-thiazole-4-carboxamide] | > 20 µM
Cc1nsc(Nc2cnc(C(F)(F)F)cn2)c1C(=O)Nc1ccc(O[C@@H]2CCN(CCC(F)(F)F)C[C@H]2F)nc1 [Example 368, N-(6-{[(3R,4R)-3-fluoro-1-(3,3,3-trifluoropropyl)piperidin-4-yl]oxy}pyridin-3-yl)-3-methyl-5-{[5-(trifluoromethyl)pyrazin-2-yl]amino}-1,2-thiazole-4-carboxamide] | > 20 µM
CCN1CC[C@@H](Oc2ccc(NC(=O)c3c(C)nsc3Nc3cnc(C(F)(F)F)cn3)cn2)[C@H](F)C1 [Example 369, N-(6-{[(3R,4R)-1-ethyl-3-fluoropiperidin-4-yl]oxy}pyridin-3-yl)-3-methyl-5-{[5-(trifluoromethyl)pyrazin-2-yl]amino}-1,2-thiazole-4-carboxamide] | > 20 µM
Cc1nsc(Nc2cnc(C(F)(F)F)cn2)c1C(=O)Nc1ccc(N2CCN(CC(F)F)CC2)cn1 [Example 372, N-{5-[4-(2,2-difluoroethyl)piperazin-1-yl]pyridin-2-yl}-3-methyl-5-{[5-(trifluoromethyl)pyrazin-2-yl]amino}-1,2-thiazole-4-carboxamide] | > 20 µM
Cc1nsc(Nc2cnc(C(F)(F)F)cn2)c1C(=O)Nc1ccc(N2CCN(CC(F)(F)F)CC2)cn1 [Example 373, 3-methyl-N-{5-[4-(2,2,2-trifluoroethyl)piperazin-1-yl]pyridin-2-yl}-5-{[5-(trifluoromethyl)pyrazin-2-yl]amino}-1,2-thiazole-4-carboxamide] | > 20 µM
Cc1nsc(Nc2cnc(C(F)(F)F)cn2)c1C(=O)Nc1ccc(N2CCN(CCC(F)(F)F)CC2)cn1 [Example 374, 3-methyl-5-{[5-(trifluoromethyl)pyrazin-2-yl]amino}-N-{5-[4-(3,3,3-trifluoropropyl)piperazin-1-yl]pyridin-2-yl}-1,2-thiazole-4-carboxamide] | > 20 µM
Cc1nsc(Nc2cnc(C(F)(F)F)cn2)c1C(=O)Nc1ccc(OC[C@@H]2CCCN(CC(F)F)C2)nc1 [Example 375, N-(6-{[(3R)-1-(2,2-difluoroethyl)piperidin-3-yl]methoxy}pyridin-3-yl)-3-methyl-5-{[5-(trifluoromethyl)pyrazin-2-yl]amino}-1,2-thiazole-4-carboxamide] | > 20 µM
Cc1nsc(Nc2cnc(C(F)(F)F)cn2)c1C(=O)Nc1ccc(OC[C@@H]2CCCN(CC(F)(F)F)C2)nc1 [Example 376, 3-methyl-N-(6-{[(3R)-1-(2,2,2-trifluoroethyl)piperidin-3-yl]methoxy}pyridin-3-yl)-5-{[5-(trifluoromethyl)pyrazin-2-yl]amino}-1,2-thiazole-4-carboxamide] | > 20 µM
Cc1nsc(Nc2cnc(C(F)(F)F)cn2)c1C(=O)Nc1ccc(O[C@H]2CCN(CC(F)F)C2)nc1 [Example 382, N-(6-{[(3S)-1-(2,2-difluoroethyl)pyrrolidin-3-yl]oxy}pyridin-3-yl)-3-methyl-5-{[5-(trifluoromethyl)pyrazin-2-yl]amino}-1,2-thiazole-4-carboxamide] | > 20 µM
Cc1nsc(Nc2cnc(C(F)(F)F)cn2)c1C(=O)Nc1ccc(O[C@@H]2CCCN(CCC(F)(F)F)C2)nc1 [Example 387, 3-methyl-5-{[5-(trifluoromethyl)pyrazin-2-yl]amino}-N-(6-{[(3R)-1-(3,3,3-trifluoropropyl)piperidin-3-yl]oxy}pyridin-3-yl)-1,2-thiazole-4-carboxamide] | ≥ 20 µM
